Two molecules from EP1372636B1, “METRONOMIC DOSING OF TAXANES FOR INHIBITING TUMOR GROWTH” (Bristol-Myers Squibb Company, priority 2001, dated 2002) can be followed below.

In series [1] the test system is human umbilical vein endothelial cell (HUVEC). Briefly: HUVEC proliferation (3H-thymidine incorporation). The class given is cell-based. Particulars: for IC50: Homo sapiens, HUVEC, read-out: IC50 in Cells HUVEC. For orientation: Dividing cells build labelled thymidine or BrdU into new DNA.
Method: (§4) Primary human umbilical vein endothelial cells (HUVEC) were purchased from CLONETICS Inc. (San Diego, CA) and used at passage 2 to 3. Proliferation was measured using ^3H-thymidine incorporation in cells by pulsing twenty-four hours prior to harvesting cell cultures. The human breast carcinoma line H3396 was used to assess activity of compound on tumor cells. Cells (2 x 10^3) were plated on collagen IV coated 96 well plates. Twenty-four hours later, compounds were added at varying concentrations. After 48 hours, ^3H-thymidine was added and cells were allowed to incorporate this label over a twenty-four hour period. Cellular extracts were harvested onto glass filters and incorporated radioactivity was determined by counting in a Beta scintillation counter. The IC50, defined as the drug concentration that causes 50% inhibition of ^3H-thymidine incorporation, was extrapolated from the plotted data.
The subject of series [2] is human breast carcinoma line H3396. As to the kind of experiment: H3396 tumor cell proliferation (3H-thymidine incorporation). In kind it is cell-based.
Method: as §4
In the next series the test system is HUVEC. As to the kind of experiment: In vitro HUVEC tube formation on […]. In kind it is cell-based, human. On the set-up: key: C= complete; P= partial. On the procedure:
Angiogenesis results in a network of functional blood vessels that contain red blood cells. In vitro assays that, in part, mimic that process have been established. Primary endothelial cells such as HUVEC when placed on […] (Collaborative Research, Inc.) form a three-dimensional network of tubes that align into cords. In this assay system, tube formation was evaluated on an extracellular protein matrix consisting of […] diluted 1:1 with culture media (EBM-2; CLONETICS, Inc.) and allowed to polymerize for 60 minutes at 37 C. […] Eighteen hours following the plating of cells, the media was removed and cultures were fixed in formalin. Inhibition of tubes on […] is evaluated on an inverted microscope using phase contrast lighting. To determine the effect of compounds in this assay, a descriptive approach was developed. […] Partial inhibition is defined as an incomplete network with a large number of single cells. Complete inhibition is defined as greater than 99% of cells occurring as single cells with no elongated or branching structures. The number of single cells occurring after vehicle treatment (control) is subtracted from the total number of single cells occurring in the treated groups prior to assessing the effects of test compounds for establishing background effects.

Series [3] can be described thus: In vivo […] plug angiogenesis model (number of endothelial cells in plugs). Also noted: species or system athymic (nu/nu) Balb/c mice. Particulars: mouse, in vivo, read-out: maximum tolerated dose (MTD). On the procedure:
(§1) LX1 human lung tumor fragments that were maintained by serial subcutaneous passage in athymic (nu/nu) Balb/c mice were implanted subcutaneously as small fragments approximately 0.1 mm^3 in size. Tumor volume doubling time for this tumor in these studies was 2.8 days. When tumors reached the size range of 150-200 mm^3, liquid […] was injected subcutaneously on the side contralateral to the tumor. Treatment was initiated 24 hours later at varying doses and schedules. Prior to implanting, […] is prepared by placing solidified […] on ice overnight at 4 C in accordance with the method described by Passiniti et al. (Lab. Invest. 1992 67:519-28). At the liquid phase and while on ice, VEGF and bFGF (Peprotech, Inc. Rocky Hill, NJ) is added to the […] at final respective concentrations of 75 ng/ml and 300 ng/ml. Stock solutions of these growth factors are made fresh at […] in PBS. Twenty-four hours following final treatment, animals were sacrificed by cervical dislocation and […] plugs from treated and control animals were excised and fixed for at least 48 hours in 10% neutral buffered formalin. These plugs were then processed for paraffin embedding and sectioned at 5 µm thickness followed by staining with hematoxylin and eosin prior to quantitative analysis. The number of endothelial cells in plugs was quantitated using the IMAGEPRO PLUS software (Media Cybernetics, Inc., Silver Spring, MD) at a magnification of 20x. Fifty fields of view from each plug were used for counting the number of endothelial cells. The number of cells were summarized and compared statistically to controls.
(§2) Angiogenesis is evaluated in these plugs as the number of endothelial cells migrating into plugs from compound treated groups relative to the vehicle treated group. Tumors were implanted for the purpose of monitoring the anti-tumor effects of these compounds throughout these studies in order to assure compound efficacy at the therapeutic doses.
(§3) For TAXOL, normal saline was used as the diluent and delivery was made intravenously. For the oral taxane of Formula I, sterilized water was used as the diluent and delivery was by oral gavage.

Series [4] has as its system endothelial cells occurring in MATRIGEL plugs. The series is described as above. Also noted: species or system athymic (nu/nu) Balb/c mice. To be noted: q2dx5; for reduction of cell number in plugs: oral gavage. On the procedure:
as §1, §2, §3

Series [5] is described as follows: Oral bioavailability in the rat. In kind it is in vivo.
Series [6] in a line: Oral bioavailability in the dog. In kind it is in vivo.
In series [7] the test system is mammary 16/C murine carcinoma. Briefly: Staged subcutaneous mammary 16/C carcinoma in mice, gross log cell kill. In kind it is in vivo, C3H mice. An excerpt:
The final concentrations of each component of the vehicle was as follows: CREMOPHOR 10%; ethanol 10%; aqueous 80%.
C3H conventional mice were purchased from Harlan-Sprague Dawley (Indianapolis, IN) and fed mouse chow and water ad libitum.
The metastatic mammary 16/C murine carcinoma was propagated biweekly in C3H mice. Experiments were initiated by subcutaneous insertion by trocar of tumor fragments.
For in vivo tumor testing, the C3H mice were implanted subcutaneously with mammary 16/C tumor fragments. All treatments were initiated on Day 10 post-tumor implant, except for an untreated control group. All groups contained 8 mice. Tumors were measured once or twice weekly and dimensions were converted to weights using the formula Weight (milligrams)= a x b^2, where a=length and b=width (in millimeters). The median time for tumors within each group of mice to reach 1 gram was determined and the delays in median time to reach 1 gram tumor target size for treated (T) versus control (C) groups was calculated. These delays in tumor growth (T-C value in days) were further converted to gross log cell kill (LCK) values using the formula T-C/(tumor volume doubling time, TVDT, of the control group) x (3.32). A LCK of greater than or equal to 1 LCK was considered an active result. Cures were assessed at the end of each experiment and defined in the absence of a tumor mass of greater than 35 milligrams. Experiments were terminated more than 10 x TVDT following the completion of all treatments.

Where two headings read alike, the source gives them in different places.

From the text for L2987 human lung tumor: L2987 human lung tumors were implanted and allowed to reach 50 to 100 mm^3 before drug administration.

`COC(=O)O[C@@]12CO[C@@H]1C[C@H](O)[C@@]1(C)C(=O)[C@H](OC(C)=O)C3=C(C)[C@@H](OC(=O)[C@H](O)[C@@H](NC(=O)OC(C)(C)C)C(C)(C)C)C[C@@](O)([C@@H](OC(=O)c4ccccc4)[C@H]21)C3(C)C` [Formula I, 3'-tert-Butyl-3'-N-tert-butyloxycarbonyl-4-deacetyl-3'-dephenyl-3'-N-debenzoyl-4-O-methoxycarbonyl-paclitaxel]: the IC50 in [1] worked out at 2 nM; in [2] (H3396, read-out: IC50 in Cells H3396, 3H-thymidine incorporation, two separate experiments (two columns)), 2 nM. In addition, the “Inhibition of HUVEC Tube Formation on MATRIGEL” value is reported as “P” in the series on HUVEC (0.0005µM); “P” in the series with HUVEC (0.0050µM); “C” with HUVEC (0.0500µM); “C” with HUVEC (0.5000µM); “C” in the series on HUVEC (5.000µM). In addition, the maximal tolerated dose (MTD) in [3] (po) turned out to be 60 mg/kg. Also, the “reduction of cell number in plugs” value in series [4] (18 mg/kg), in series [4] (36 mg/kg) and in [4] (60 mg/kg (MTD)) was “greater than 50%” in each case. Also, the oral bioavailability entry in [5] and in series [6] was “good” throughout. The weight loss entry is “no weight loss was observed” in the series on L2987 human lung tumor (20 mg/kg orally, metronomic schedule q2dx15) and “weight loss was also observed” in the series on L2987 human lung tumor (60 mg/kg orally, standard schedule q2dx5). In the series with L2987 human lung tumor (20 mg/kg orally, metronomic schedule q2dx15 (cumulative 300 mg/kg)), the tumor growth result is “suppressed tumor growth”. Further, in the series with L2987 human lung tumor (60 mg/kg orally, standard schedule q2dx5 (cumulative 300 mg/kg), compared with metronomic regime), the anti-tumor response result is reported as “greater anti-tumor response”.
`CC(=O)O[C@H]1C(=O)[C@@]2(C)[C@H]([C@H](OC(=O)c3ccccc3)[C@]3(O)C[C@H](OC(=O)[C@H](O)[C@@H](NC(=O)c4ccccc4)c4ccccc4)C(C)=C1C3(C)C)[C@]1(OC(C)=O)CO[C@@H]1C[C@@H]2O` [TAXOL, paclitaxel]: the IC50 stood at 3 nM in series [1] (3H-thymidine incorporation, two separate experiments (two columns)) and 3 nM in series [2] (H3396, 3H-thymidine incorporation, two separate experiments (two columns), read-out: IC50 in Cells H3396). The H3396/HUVEC in series [1] (ratio of IC50 in H3396 to IC50 in HUVEC) was determined as 0.88. Moreover, the “Inhibition of HUVEC Tube Formation on MATRIGEL” value with HUVEC (0.0005µM) is reported as “P”; in the series with HUVEC (0.0050µM) it was “P”; with HUVEC (0.0500µM), “C”; in the series on HUVEC (0.5000µM), “C”; in the series on HUVEC (5.000µM) it was “C”. The maximal tolerated dose (MTD) in series [3] (athymic (nu/nu) Balb/c, intravenous) is 24 mg/kg. Also, the “reduction in cell number in MATRIGEL plugs compared to control groups” value in series [4] (24 mg/kg (MTD), intravenously) is given as “greater than 50%”. The “Gross LCK” value was 4.5 in series [7] (Paclitaxel 20 mg/kg/inj qd 10-14 iv, no Formula I, Paclitaxel 20 mg/kg/inj qd 32-36 iv); 4.7 in series [7] (Paclitaxel 20 mg/kg/inj qd 10-14 iv, no Formula I, Paclitaxel 30 mg/kg/inj qd 32-36 iv); 1.9 in series [7] (Paclitaxel 30 mg/kg/inj qd 10-14 iv alone (single course)); 1.9 in series [7] (Paclitaxel 45 mg/kg/inj qd 10-14 iv alone (single course)). The cures/total in [7] (Paclitaxel 30 mg/kg/inj qd 10-14 iv alone, Cures assessed on Day 60) is given as 2/8; in [7] (Paclitaxel 45 mg/kg/inj qd 10-14 iv alone, Cures assessed on Day 60 post tumor implant) it was 1/8; in series [7] (Paclitaxel 20 qd 10-14 iv, no Formula I, Paclitaxel 30 qd 32-36 iv, Cures assessed on Day 88), 1/8; in series [7] (Paclitaxel 30 qd 10-14 iv, no Formula I, Paclitaxel 30 qd 32-36 iv, Cures assessed on Day 88 post-tumor implant, listed as Paclitaxel), 2/8; in [7] (Paclitaxel 30 qd 10-14 iv, no Formula I, Paclitaxel 30 qd 32-36 iv, Cures assessed on Day 88 post-tumor implant, listed as paclitaxel) it was 2 of 8. This molecule returned an MTD regimen in series [7] (qdx5, iv, beginning on Day 10 post-tumor implant) of 45 mg/kg/injection.

As a reminder, the MTD is the largest dose that counted as tolerated.
